Experimental findings from patent publication US10798941B2, “Microbiocidal oxadiazole derivatives” (SYNGENTA PARTICIPATIONS AG, priority 2016, dated 2020) are described below.

Data set [1] deals with Glomerella Lagenarium (Colletotrichum Lagenarium). As to the kind of experiment: Glomerella lagenarium (Colletotrichum lagenarium) liquid culture / cucumber / preventative (anthracnose). The format is cell-based. To be noted: Colletotrichum orbiculare; 20 ppm in the applied formulation; liquid culture in PDB, 24° C., inhibition of growth measured photometrically 3 to 4 days after application, vs untreated; read-out: disease control. The procedure, abridged:
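Conidia from cryogenic storage were mixed into potato dextrose broth. This was added to compound diluted from DMSO into 0.025% Tween20, tested at 20 ppm. Plates were incubated in the dark at 24 °C and 96% relative humidity, and growth was read photometrically after 2–7 days as % activity versus untreated check.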

Data set [2] relates to Uromyces viciae-Fabae. As to the kind of experiment: Uromyces viciae-fabae / field bean / leaf disc preventative (faba-bean rust). The format is in vivo. As to conditions: foliar, 288 h, 100 ppm in the applied formulation, field bean leaf discs, inoculated two hours after application, assessed 12 days after application, vs untreated, read-out: disease control. The procedure:
Leaf disks or leaf segments of various plant species are cut from plants grown in a greenhouse. The cut leaf disks or segments are placed in multiwell plates (24-well format) onto water agar. The leaf disks are sprayed with a test solution before (preventative) or after (curative) inoculation. Compounds to be tested are prepared as DMSO solutions (max. 10 mg/ml) which are diluted to the appropriate concentration with 0.025% Tween20 just before spraying. The inoculated leaf disks or segments are incubated under defined conditions (temperature, relative humidity, light, etc.) according to the respective test system. A single evaluation of disease level is carried out 3 to 14 days after inoculation, depending on the pathosystem. Percent disease control relative to the untreated check leaf disks or segments is then calculated.
Field bean leaf discs are placed on water agar in multiwell plates (96-well format) and 10 μl of the formulated test compound diluted in acetone and a spreader pipetted onto the leaf disc. Two hours after application leaf discs are inoculated by spraying a spore suspension on the lower leaf surface. The leaf discs are incubated in a climate cabinet at 22° C. with 18 hour day and 70% relative humidity. The activity of a compound is assessed as percent disease control compared to untreated when an appropriate level of disease damage appears in untreated check leaf disks (12 days after application).
The following compounds at 100 ppm in the applied formulation give at least 80% disease control in this test when compared to untreated control leaf discs under the same conditions, which show extensive disease development.

Data set [3] has as its system Phakopsora pachyrhizi. As to the kind of experiment: Phakopsora pachyrhizi / soybean / leaf disc preventative (Asian soybean rust). The format is in vivo. As to conditions: foliar, 288 h, 200 ppm in the applied formulation, soybean leaf disks, inoculated one day after application, assessed 12 to 14 days after application, vs untreated, read-out: disease control. The procedure, abridged:
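Read-out is percent disease control relative to untreated check discs, assessed once untreated discs show adequate disease, 12 to 14 days after application. Compounds, tested at 200 ppm in the applied formulation, are sprayed onto soybean leaf discs one day before inoculation with a spore suspension.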

The subject of data set [4] is Puccinia recondita f. Sp. Tritici. As to the kind of experiment: Puccinia recondita f. sp. tritici / wheat / leaf disc preventative (brown rust). To be noted: foliar, 168 h, 200 ppm in the applied formulation, wheat leaf segments cv. Kanzler, preventative, inoculated 1 day after application, assessed 7 to 9 days after application, vs untreated, read-out: disease control. The format is in vivo. The procedure, abridged: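 Wheat cv. Kanzler leaf segments on agar were sprayed with formulated compound in water, then inoculated with spores 1 day later. Incubated at 19° C, 75% rh, 12 h light/12 h dark; percent disease control versus untreated scored 7 to 9 days after application.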

Data set [5] has the same test system. As to the kind of experiment: Puccinia recondita f. sp. tritici / wheat / leaf disc curative (brown rust). The format is in vivo. As to conditions: foliar, 144 h, 200 ppm in the applied formulation, wheat leaf segments cv. Kanzler, applied 1 day after inoculation, assessed 6 to 8 days after application, vs untreated, read-out: disease control. The procedure, abridged:
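Read-out is percent disease control relative to untreated segments, assessed 6 to 8 days after treatment once check disease is adequate. Kanzler wheat leaf segments on agar receive fungal spores, then test compound (DMSO stock diluted in 0.025% Tween20 or water) 1 day later, under 19° C and 75% relative humidity.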

For `FC(F)(F)c1nc(-c2ccc(Cn3nncc3-c3ccccc3)cc2)no1` [Compound 1.3, 3-[4-[(5-phenyltriazol-1-yl)methyl]phenyl]-5-(trifluoromethyl)-1,2,4-oxadiazole], the inhibition of growth at 20 ppm in data set [1] was ≥ 80%. Further, the pest or weed control at 100 ppm in data set [2] is ≥ 80%. In addition, the pest or weed control at 200 ppm in data set [3], in data set [4] and in data set [5] was ≥ 80% in each case.

`CC1(C)CN=C(Cc2ccc(-c3noc(C(F)(F)F)n3)cc2)O1` [Compound 1.10, 3-[4-[(5,5-dimethyl-4H-oxazol-2-yl)methyl]phenyl]-5-(trifluoromethyl)-1,2,4-oxadiazole]: in data set [1], the inhibition of growth at 20 ppm is ≥ 80%. In addition, in data set [2], the pest or weed control at 100 ppm was ≥ 80%. In addition, the pest or weed control at 200 ppm in data set [3], in data set [4] and in data set [5] was ≥ 80% throughout.

A word on the melting point: it is the temperature, or range, at which the solid turns liquid. Consider `Fc1ccc(-c2cn(Cc3ccc(-c4noc(C(F)(F)F)n4)cc3)nn2)cc1` [Compound 1.13, 3-[4-[[4-(4-fluorophenyl)triazol-1-yl]methyl]phenyl]-5-(trifluoromethyl)-1,2,4-oxadiazole], for which the melting point was in the range of 185.3 to 189 °C. For the same compound, in data set [2], the pest or weed control at 100 ppm is ≥ 80%.

As for `Cc1cc(C(F)(F)F)nn1Cc1ccc(-c2noc(C(F)(F)F)n2)cc1` [Compound 1.20, 3-[4-[[5-methyl-3-(trifluoromethyl)pyrazol-1-yl]methyl]phenyl]-5-(trifluoromethyl)-1,2,4-oxadiazole], in data set [1], the inhibition of growth at 20 ppm is ≥ 80%. In data set [2], the pest or weed control at 100 ppm was ≥ 80%. In addition, the pest or weed control at 200 ppm in data set [3] is ≥ 80%.

Consider `O=C(c1cnn(Cc2ccc(-c3noc(C(F)(F)F)n3)cc2)c1)N1CCOCC1` [Compound 1.261, morpholino-[1-[[4-[5-(trifluoromethyl)-1,2,4-oxadiazol-3-yl]phenyl]methyl]pyrazol-4-yl]methanone], for which the melting point was 125 to 135 °C. For the same compound, in data set [1], the inhibition of growth at 20 ppm was ≥ 80%. In addition, in data set [3], the pest or weed control at 200 ppm was ≥ 80%. In addition, the pest or weed control at 200 ppm in data set [4] was ≥ 80%. Besides, the pest or weed control at 200 ppm in data set [5] is ≥ 80%.

Turning to `CN(C)CCOC(=O)c1cnn(Cc2ccc(-c3noc(C(F)(F)F)n3)cc2)c1` [Compound 1.265, 2-(dimethylamino)ethyl 1-[[4-[5-(trifluoromethyl)-1,2,4-oxadiazol-3-yl]phenyl]methyl]pyrazole-4-carboxylate], the melting point lay in the range of 60 to 70 °C. Besides, the inhibition of growth at 20 ppm in data set [1] is ≥ 80%. Further, the pest or weed control at 200 ppm in data set [3] is ≥ 80%. Also, the pest or weed control at 200 ppm in data set [4] was ≥ 80%. Also, the pest or weed control at 200 ppm in data set [5] is ≥ 80%.

Take `COC(=O)c1cn(Cc2ccc(-c3noc(C(F)(F)F)n3)cc2)nn1` [Compound 1.270, methyl 1-[[4-[5-(trifluoromethyl)-1,2,4-oxadiazol-3-yl]phenyl]methyl]triazole-4-carboxylate]: the melting point lay in the range of 154 to 156 °C. Also, the inhibition of growth at 20 ppm in data set [1] is ≥ 80%. For the same compound, the pest or weed control at 200 ppm in data set [3] is ≥ 80%. Moreover, the pest or weed control at 200 ppm in data set [4] was ≥ 80%. Moreover, the pest or weed control at 200 ppm in data set [5] was ≥ 80%.

For the compound `O=Cc1cnn(Cc2ccc(-c3noc(C(F)(F)F)n3)cc2)c1` [Compound 1.273, 1-[[4-[5-(trifluoromethyl)-1,2,4-oxadiazol-3-yl]phenyl]methyl]pyrazole-4-carbaldehyde], the melting point was in the range of 91 to 96 °C. Besides, the inhibition of growth at 20 ppm in data set [1] is ≥ 80%. For the same compound, the pest or weed control at 200 ppm in data set [3] was ≥ 80%. Further, the pest or weed control at 200 ppm in data set [4] is ≥ 80%. In addition, the pest or weed control at 200 ppm in data set [5] was ≥ 80%.

The compound `CCNC(=O)c1cn(Cc2ccc(-c3noc(C(F)(F)F)n3)cc2)nn1` [Compound 1.274, N-ethyl-1-[[4-(5-(trifluoromethyl)-1,2,4-oxadiazol-3-yl]phenyl]methyl]triazole-4-carboxamide] gave a melting point of 193 to 195 °C. In addition, the inhibition of growth at 20 ppm in data set [1] is ≥ 80%. In addition, the pest or weed control at 200 ppm in data set [3] was ≥ 80%. In addition, the pest or weed control at 200 ppm in data set [4] was ≥ 80%. Further, the pest or weed control at 200 ppm in data set [5] is ≥ 80%.

Regarding `CON(C)C(=O)c1cn(Cc2ccc(-c3noc(C(F)(F)F)n3)cc2)nn1` [Compound 1.275, N-methoxy-N-methyl-1-[[4-[5-(trifluoromethyl)-1,2,4-oxadiazol-3-yl]phenyl]methyl]triazole-4-carboxamide], the melting point is 135 to 137 °C. For the same compound, the inhibition of growth at 20 ppm in data set [1] was ≥ 80%. Further, the pest or weed control at 200 ppm in data set [3] was ≥ 80%. The pest or weed control at 200 ppm in data set [4] was ≥ 80%. Further, the pest or weed control at 200 ppm in data set [5] was ≥ 80%.

Regarding `CONC(=O)c1cn(Cc2ccc(-c3noc(C(F)(F)F)n3)cc2)nn1` [Compound 1.277, N-methoxy-1-[[4-[5-(trifluoromethyl)-1,2,4-oxadiazol-3-yl]phenyl]methyl]triazole-4-carboxamide], the melting point fell in the range of 198 to 200 °C. For the same compound, the inhibition of growth at 20 ppm in data set [1] is ≥ 80%. Also, in data set [3], the pest or weed control at 200 ppm is ≥ 80%. The pest or weed control at 200 ppm in data set [4] is ≥ 80%. For the same compound, in data set [5], the pest or weed control at 200 ppm is ≥ 80%.

The compound `COC(=O)c1cnnn1Cc1ccc(-c2noc(C(F)(F)F)n2)cc1` [Compound 1.279, methyl 3-[[4-[5-(trifluoromethyl)-1,2,4-oxadiazol-3-yl]phenyl]methyl]triazole-4-carboxylate] displayed a melting point of 103 to 107 °C. In addition, the inhibition of growth at 20 ppm in data set [1] was ≥ 80%. For the same compound, the pest or weed control at 200 ppm in data set [3] was ≥ 80%. Moreover, the pest or weed control at 200 ppm in data set [4] is ≥ 80%. Further, the pest or weed control at 200 ppm in data set [5] was ≥ 80%.

`CN(C)C(=O)c1cn(Cc2ccc(-c3noc(C(F)(F)F)n3)cc2)nn1` [Compound 1.280, N,N-dimethyl-1-[[4-[5-(trifluoromethyl)-1,2,4-oxadiazol-3-yl]phenyl]methyl]triazole-4-carboxamide]: the melting point fell in the range of 168 to 170 °C. The inhibition of growth at 20 ppm in data set [1] is ≥ 80%. In data set [3], the pest or weed control at 200 ppm was ≥ 80%. Besides, the pest or weed control at 200 ppm in data set [4] is ≥ 80%. In data set [5], the pest or weed control at 200 ppm was ≥ 80%.

`O=C(Nc1ccncc1)c1cn(Cc2ccc(-c3noc(C(F)(F)F)n3)cc2)nn1` [Compound 1.283, N-(4-pyridyl)-1-[[4-[5-(trifluoromethyl)-1,2,4-oxadiazol-3-yl]phenyl]methyl]triazole-4-carboxamide] showed a melting point of 204 to 206 °C. For the same compound, the inhibition of growth at 20 ppm in data set [1] is ≥ 80%. In addition, the pest or weed control at 200 ppm in data set [3] was ≥ 80%. In addition, the pest or weed control at 200 ppm in data set [4] is ≥ 80%. Further, in data set [5], the pest or weed control at 200 ppm was ≥ 80%.

For the compound `C#CCON=Cc1cnn(Cc2ccc(-c3noc(C(F)(F)F)n3)cc2)c1` [Compound 1.290, N-prop-2-ynoxy-1-[1-[[4-[5-(trifluoromethyl)-1,2,4-oxadiazol-3-yl]phenyl]methyl]pyrazol-4-yl]methanimine], the melting point fell in the range of 57 to 63 °C. Moreover, the inhibition of growth at 20 ppm in data set [1] was ≥ 80%. Besides, in data set [3], the pest or weed control at 200 ppm is ≥ 80%. Besides, in data set [4], the pest or weed control at 200 ppm was ≥ 80%. Moreover, in data set [5], the pest or weed control at 200 ppm was ≥ 80%.

As for `CS(=O)(=O)N1CCN(Cc2ccc(-c3noc(C(F)(F)F)n3)cc2)CC1` [Compound 1.305, 3-[4-[(4-methylsulfonyl-piperazin-1-yl)methyl]phenyl]-5-(trifluoromethyl)-1,2,4-oxadiazole], the melting point was in the range of 111.1 to 114.9 °C. Further, the inhibition of growth at 20 ppm in data set [1] is ≥ 80%. In addition, the pest or weed control at 200 ppm in data set [3] was ≥ 80%. Besides, the pest or weed control at 200 ppm in data set [4] is ≥ 80%. Moreover, the pest or weed control at 200 ppm in data set [5] was ≥ 80%.
